Data as given in the supplement of paper PMC10307832.

Key:
Assay in all cases: relative viability (nuclei count vs DMSO), 5 days (fraction); higher = more cells survive
Zosuquidar + Decitabine = compound: O[C@@H](COc1cccc2ncccc12)CN1CCN([C@@H]2c3ccccc3[C@@H]3[C@H](c4ccccc42)C3(F)F)CC1 [Zosuquidar] + Nc1ncn([C@H]2C[C@H](O)[C@@H](CO)O2)c(=O)n1 [Decitabine] (partner 2 µM)
How it was run: (§1)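 Relative viability is defined as nuclei in treated wells over nuclei in vehicle wells. Duplicate plates were run and medians reported. Lung cancer cell lines in 1536-well plates were dosed by pin tool one day after seeding, with one drug or with a fixed anchor-drug dose plus five library-drug doses (not always all listed) in √10 steps, and nuclei were counted after 5 days.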

Cabozantinib + Foretinib = compound: COc1cc2nccc(Oc3ccc(NC(=O)C4(C(=O)Nc5ccc(F)cc5)CC4)cc3)c2cc1OC [Cabozantinib] + COc1cc2c(Oc3ccc(NC(=O)C4(C(=O)Nc5ccc(F)cc5)CC4)cc3F)ccnc2cc1OCCCN1CCOCC1 [Foretinib] (partner 0.25 µM)
How it was run: as §1

Kobe2602 + Olaparib = compound: C1=CC(=CC=C1NC(=S)NNC2=C(C=C(C=C2[N+](=O)[O-])C(F)(F)F)[N+](=O)[O-])F [Kobe2602] + O=C(c1cc(Cc2n[nH]c(=O)c3ccccc23)ccc1F)N1CCN(C(=O)C2CC2)CC1 [Olaparib] (partner 8 µM)
How it was run: as §1

[1] = compound: COc1cc2nccc(Oc3ccc(NC(=O)C4(C(=O)Nc5ccc(F)cc5)CC4)cc3)c2cc1OC [Cabozantinib] + CC(=O)c1c(C)c2cnc(Nc3ccc(N4CCNCC4)cn3)nc2n(C2CCCC2)c1=O [Palbociclib] (partner 0.5 µM)
How it was run: as §1

| Cell Line | relative viability (Zosuquidar + Decitabine; first compound 0.01 µM) | relative viability (Zosuquidar + Decitabine; first compound 0.03162 µM) | relative viability (Zosuquidar + Decitabine; first compound 0.3162 µM) | relative viability (Zosuquidar + Decitabine; first compound 1 µM) | relative viability (Cabozantinib + Foretinib; first compound 0.02 µM) | relative viability (Cabozantinib + Foretinib; first compound 0.06325 µM) | relative viability (Cabozantinib + Foretinib; first compound 0.2 µM) | relative viability (Cabozantinib + Foretinib; first compound 0.6325 µM) | relative viability (Cabozantinib + Foretinib; first compound 2 µM) | relative viability (Kobe2602 + Olaparib; first compound 0.2 µM) | relative viability (Kobe2602 + Olaparib; first compound 0.6325 µM) | relative viability (Kobe2602 + Olaparib; first compound 6.325 µM) | relative viability (Kobe2602 + Olaparib; first compound 20 µM) | relative viability ([1]; first compound 0.02 µM) | relative viability ([1]; first compound 0.06325 µM) | relative viability ([1]; first compound 0.2 µM) | relative viability ([1]; first compound 0.6325 µM) | relative viability ([1]; first compound 2 µM) | relative viability (Zosuquidar + Decitabine; first compound 0.1 µM) | relative viability (Kobe2602 + Olaparib; first compound 2 µM) |
| --- | --- | --- | --- | --- | --- | --- | --- | --- | --- | --- | --- | --- | --- | --- | --- | --- | --- | --- | --- | --- |
| LCLC-97TM1 | 0.27 | 0.217 | 0.253 | 0.224 | 0.938 | 1.1 | 0.993 | 1.04 | 0.879 | 0.365 | 0.416 | 0.437 | 0.383 | 0.189 | 0.228 | 0.221 | 0.253 | 0.222 | – | – |
| LCLC-103H | 0.803 | 0.724 | 0.739 | 0.772 | 0.909 | 0.695 | 0.778 | 0.745 | 0.756 | 0.775 | 0.793 | 0.762 | 0.764 | 0.492 | 0.463 | 0.464 | 0.434 | 0.435 | 0.787 | 0.804 |
| LK-2 | 0.247 | 0.361 | 0.372 | 0.304 | – | 1.27 | – | 1.52 | 0.863 | 0.619 | 0.766 | 0.596 | 0.796 | – | 0.969 | 0.704 | 0.69 | 0.636 | 0.28 | 0.875 |
| LOU-NH91 | 0.805 | 0.814 | 0.834 | 0.761 | 0.89 | 0.997 | – | 0.966 | 0.992 | 0.9 | 0.922 | 0.917 | 0.819 | 0.527 | 0.518 | 0.558 | 0.549 | 0.557 | 0.703 | 0.875 |
| LU99A | 0.835 | 1.09 | 0.917 | 1.04 | 0.805 | 0.922 | 0.906 | 0.784 | 0.838 | 0.255 | 0.275 | 0.262 | 0.28 | 0.381 | 0.419 | 0.447 | 0.39 | 0.362 | 0.946 | 0.259 |
| LXF-289 | 0.357 | 0.364 | 0.418 | 0.403 | 0.974 | 1 | 0.934 | 1.02 | 0.993 | 1.05 | 1.1 | 0.955 | 1.04 | 0.582 | 0.625 | 0.532 | 0.618 | 0.559 | 0.367 | 1.05 |
| NCI-H23 | 0.29 | – | 0.302 | 0.324 | – | 1.03 | 0.989 | 0.904 | 0.836 | 0.367 | 0.355 | 0.277 | 0.313 | – | 0.541 | 0.579 | 0.541 | 0.437 | 0.306 | 0.249 |
| NCI-H322M | 0.598 | 0.548 | 0.632 | 0.625 | 0.967 | 1.21 | 0.899 | 0.874 | 0.931 | 0.737 | 0.752 | 0.875 | 0.828 | 0.533 | 0.565 | 0.446 | 0.498 | 0.454 | 0.666 | 0.776 |
| NCI-H358 | 0.23 | 0.194 | 0.255 | 0.19 | 0.662 | 0.839 | 0.668 | 0.662 | 0.652 | 0.586 | 0.592 | 0.528 | 0.653 | 0.112 | 0.138 | 0.163 | 0.135 | 0.135 | 0.214 | 0.589 |
| NCI-H441 | 0.234 | 0.249 | 0.248 | 0.251 | 1.25 | 0.989 | 0.986 | 1.18 | 1.18 | 0.581 | 0.716 | 0.511 | 0.545 | 0.157 | 0.286 | 0.181 | 0.23 | 0.184 | 0.235 | 0.66 |
| NCI-H460 | 0.459 | 0.448 | 0.55 | 0.44 | 1.03 | 1.04 | 0.93 | 1 | 1.07 | 0.427 | 0.416 | 0.423 | 0.43 | 0.168 | 0.243 | 0.245 | 0.187 | 0.165 | 0.335 | 0.455 |
| NCI-H520 | 0.505 | 0.523 | 0.472 | 0.47 | 0.756 | 0.756 | 0.778 | 0.804 | 0.889 | 0.333 | 0.38 | 0.353 | 0.333 | 0.266 | 0.245 | 0.268 | 0.228 | 0.203 | 0.395 | 0.381 |
| NCI-H647 | 0.396 | 0.444 | 0.378 | 0.318 | 1.23 | 1.1 | 1.1 | 1.14 | 0.981 | 0.511 | 0.39 | 0.606 | 0.618 | 0.47 | 0.456 | 0.406 | 0.335 | 0.358 | 0.429 | 0.55 |
| NCI-H650 | 0.292 | 0.369 | 0.398 | 0.376 | – | 1.03 | 1.06 | 0.999 | 0.984 | 0.4 | 0.443 | 0.403 | 0.401 | 0.343 | 0.325 | 0.339 | 0.317 | 0.296 | 0.387 | 0.37 |
| NCI-H661 | 0.557 | 0.54 | 0.516 | 0.523 | 0.985 | 1.04 | 1.01 | 1.02 | 1.09 | 0.714 | 0.695 | 0.754 | 0.802 | 0.385 | 0.43 | 0.425 | 0.422 | 0.463 | 0.595 | 0.697 |
